Results from ChEMBL document CHEMBL5505978, “Novel estrogen receptor β/histone deacetylase dual-targeted near-infrared fluorescent probes as theranostic agents for imaging and treatment of prostate cancer” (Eur J Med Chem, 2024).
Activity calls are given as the source filed them. No cut-off for these calls is given here.

Assays:
DU-145 [1] = test: Antitumor activity against human DU-145 cells xenografted in Balb/c mouse assessed as reduction in tumor weight at 10 mg/kg,ip administration once every 2 days for 20 days; assay type: functional, organism-based; conditions: time 20.0 day
DU-145 [2] = test: Antitumor activity against human DU-145 cells xenografted in Balb/c mouse assessed as reduction in tumor volume at 10 mg/kg,ip administration once every 2 days for 20 days; assay type: functional, organism-based; conditions: time 20.0 day
DU-145 [3] = test: cells; assay type: functional, cell-based; conditions: Homo sapiens
Description: Antiproliferative activity against human DU-145 cells assessed as inhibition of cell growth incubated for 3 to 5 days by CCK-8 assay

Histone deacetylase 1 = Histone deacetylase 1 (Homo sapiens, UniProt Q13547); test: Inhibition of HDAC1 (unknown origin) preincubated with compound for 30 mins followed by substrate addition measured after 15 mins by fluorescence based assay
[4] = molecular target: T1, Protein deacetylase HDAC6 (Homo sapiens, UniProt Q9UBN7); test: Inhibition of HDAC6 (unknown origin) preincubated with compound for 30 mins followed by substrate addition measured after 15 mins by fluorescence based assay
T1 sequence (Q9UBN7 whole entry): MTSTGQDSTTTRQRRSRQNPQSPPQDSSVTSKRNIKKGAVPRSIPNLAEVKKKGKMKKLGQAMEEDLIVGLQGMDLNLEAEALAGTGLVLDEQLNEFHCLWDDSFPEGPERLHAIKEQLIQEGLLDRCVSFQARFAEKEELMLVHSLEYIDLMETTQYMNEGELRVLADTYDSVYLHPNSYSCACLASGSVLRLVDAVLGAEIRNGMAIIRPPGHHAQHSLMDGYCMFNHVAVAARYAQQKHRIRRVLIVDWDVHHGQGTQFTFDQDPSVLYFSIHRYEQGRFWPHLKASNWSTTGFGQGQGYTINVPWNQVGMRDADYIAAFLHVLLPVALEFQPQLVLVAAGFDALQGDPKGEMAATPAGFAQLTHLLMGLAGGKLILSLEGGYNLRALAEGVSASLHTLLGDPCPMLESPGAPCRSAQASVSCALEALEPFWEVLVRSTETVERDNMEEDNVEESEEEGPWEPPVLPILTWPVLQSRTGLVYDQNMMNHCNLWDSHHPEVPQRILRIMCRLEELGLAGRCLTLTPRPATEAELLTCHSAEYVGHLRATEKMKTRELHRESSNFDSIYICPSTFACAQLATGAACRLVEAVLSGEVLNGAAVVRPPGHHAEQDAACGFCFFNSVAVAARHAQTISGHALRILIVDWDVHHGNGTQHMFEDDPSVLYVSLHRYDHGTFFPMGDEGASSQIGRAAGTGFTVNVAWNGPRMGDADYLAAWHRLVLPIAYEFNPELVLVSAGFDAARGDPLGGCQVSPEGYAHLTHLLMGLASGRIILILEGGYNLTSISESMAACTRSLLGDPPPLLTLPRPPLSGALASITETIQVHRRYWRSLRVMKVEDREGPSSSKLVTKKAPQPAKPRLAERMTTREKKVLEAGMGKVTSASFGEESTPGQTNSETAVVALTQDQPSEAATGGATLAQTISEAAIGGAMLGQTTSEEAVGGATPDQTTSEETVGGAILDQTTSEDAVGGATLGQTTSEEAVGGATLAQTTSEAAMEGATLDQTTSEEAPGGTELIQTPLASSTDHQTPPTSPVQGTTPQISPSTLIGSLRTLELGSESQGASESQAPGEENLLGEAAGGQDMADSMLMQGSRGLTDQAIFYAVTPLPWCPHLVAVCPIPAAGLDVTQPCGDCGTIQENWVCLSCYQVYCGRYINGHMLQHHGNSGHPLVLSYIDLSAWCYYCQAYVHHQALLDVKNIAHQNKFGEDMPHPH

[5] = molecular target: Estrogen receptor beta (Homo sapiens) (UniProt Q92731); test: Binding affinity to ERbeta in human DU-145 cells assessed as increase in intracellular fluorescence signal at 10 uM incubated for 30 mins by imaging analysis; assay type: cell-based; conditions: filed as agonist
[6] = molecular target: Estrogen receptor beta (Homo sapiens) (UniProt Q92731); test: Binding affinity to ERbeta in human DU-145 cells assessed as increase in intracellular fluorescence signal at 10 uM incubated for 30 mins in presence of estradiol by imaging analysis; assay type: cell-based
[7] = molecular target: Estrogen receptor beta (Homo sapiens) (UniProt Q92731); test: Binding affinity to ERbeta in human DU-145 cells assessed as increase in intracellular fluorescence signal at 10 uM incubated for 1 hr in presence of SAHA by imaging analysis; assay type: cell-based
[8] = Drug uptake in human DU-145 cells assessed as colocalization in nucleus by measuring fluorescence signal at 10 uM incubated for 30 mins by DAPI staining based fluorescence imaging analysis; assay type: ADME, cell-based; conditions: du-145, 0.5 h
[9] = Drug uptake in human DU-145 cells assessed as colocalization in […] by measuring fluorescence signal at 10 uM incubated for 30 mins by Mito-Tracker Green staining based fluorescence imaging analysis; assay type: ADME, cell-based; conditions: du-145, 0.5 h
[10] = molecular target: Estrogen receptor beta (Homo sapiens) (UniProt Q92731); test: Binding affinity to ERbeta in human DU-145 cells at 10 uM incubated for 30 mins by immunofluorescence based assay; assay type: cell-based; conditions: filed as agonist
[11] = molecular target: T2, Protein deacetylase HDAC6 (Homo sapiens) (UniProt Q9UBN7); test: Binding affinity to HDAC6 in human DU-145 cells at 10 uM incubated for 30 mins by Alexa Fluor 488 staining based immunofluorescence based assay; assay type: cell-based; conditions: filed as agonist
T2 sequence (whole entry): T1 sequence (Q9UBN7 whole entry)

[12] = Drug uptake in Balb/c mouse xenografted with human DU-145 cells assessed as increase in fluorescence intensity in tumor at 0.5 mg/kg,ip administration and measured upto 24 hrs by imaging analysis; assay type: ADME, organism-based; conditions: in vivo
[13] = Drug uptake in Balb/c mouse xenografted with human DU-145 cells assessed as increase in fluorescence intensity in tumor at 0.5 mg/kg,ip administration and measured at 12 hrs by imaging analysis; assay type: ADME, organism-based; conditions: in vivo
[14] = Drug uptake in Balb/c mouse xenografted with human DU-145 cells assessed as increase in fluorescence intensity in tumor at 0.5 mg/kg,ip administration and measured at 17 hrs by imaging analysis; assay type: ADME, organism-based; conditions: in vivo
[15] = Drug uptake in Balb/c mouse xenografted with human DU-145 cells assessed as increase in fluorescence intensity in tumor tissue at 0.5 mg/kg,ip administration and measured at 17 hrs by imaging analysis; assay type: ADME, organism-based, Neoplasm; conditions: in vivo
[16] = Drug uptake in Balb/c mouse xenografted with human DU-145 cells assessed as increase in fluorescence intensity in liver at 0.5 mg/kg,ip administration and measured at 17 hrs by imaging analysis; assay type: ADME, organism-based; conditions: in vivo
[17] = Drug uptake in Balb/c mouse xenografted with human DU-145 cells assessed as increase in fluorescence intensity in kidney at 0.5 mg/kg,ip administration and measured at 17 hrs by imaging analysis; assay type: ADME, organism-based; conditions: in vivo
[18] = Drug uptake in Balb/c mouse xenografted with human DU-145 cells assessed as increase in fluorescence intensity in tumor tissue at 0.5 mg/kg,ip administration and measured at 24 hrs by imaging analysis; assay type: ADME, organism-based, Neoplasm; conditions: in vivo
[19] = Drug uptake in Balb/c mouse xenografted with human DU-145 cells assessed as increase in fluorescence intensity in tumor tissue at 0.5 mg/kg,ip administration and measured at 36 hrs by imaging analysis; assay type: ADME, organism-based, Neoplasm; conditions: in vivo
DU-145 [20] = test: Antitumor activity against human DU-145 cells xenografted in Balb/c mouse assessed as inhibition of tumor growth at 10 mg/kg,ip administration once every 2 days for 20 days; assay type: functional, organism-based; conditions: time 20.0 day
[21] = Toxicity in Balb/c mouse xenografted with human DU-145 cells assessed as animal death at 10 mg/kg,ip administration once every 2 days for 20 days; assay type: organism-based; conditions: in vivo, 480 h, time 20 day
[22] = Toxicity in Balb/c mouse xenografted with human DU-145 cells assessed as change in body weight at 10 mg/kg,ip administration once every 2 days for 20 days; assay type: organism-based; conditions: in vivo, 480 h, time 20 day
in vitro = conditions: green monkey (Chlorocebus sabaeus), Vero cells
Description: Antiproliferative activity against green monkey Vero cells assessed as inhibition of cell growth incubated for 3 to 5 days by CCK-8 assay

Chain of Estrogen receptor beta (Homo sapiens) (Q92731 whole entry): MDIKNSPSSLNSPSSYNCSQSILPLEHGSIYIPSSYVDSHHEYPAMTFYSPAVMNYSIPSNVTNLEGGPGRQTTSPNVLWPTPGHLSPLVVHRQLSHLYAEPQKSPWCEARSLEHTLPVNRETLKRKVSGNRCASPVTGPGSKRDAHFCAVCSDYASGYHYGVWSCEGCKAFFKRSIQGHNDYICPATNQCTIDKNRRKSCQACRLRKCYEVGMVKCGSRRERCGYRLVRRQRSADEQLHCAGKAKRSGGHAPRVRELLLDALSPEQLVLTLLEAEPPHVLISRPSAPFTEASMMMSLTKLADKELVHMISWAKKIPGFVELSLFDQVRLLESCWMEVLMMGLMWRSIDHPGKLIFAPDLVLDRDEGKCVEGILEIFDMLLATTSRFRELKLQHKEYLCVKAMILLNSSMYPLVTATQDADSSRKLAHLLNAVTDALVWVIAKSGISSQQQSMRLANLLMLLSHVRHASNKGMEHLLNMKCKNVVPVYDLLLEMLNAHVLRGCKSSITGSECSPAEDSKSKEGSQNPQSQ
Chain of Histone deacetylase 1 (Q13547 whole entry): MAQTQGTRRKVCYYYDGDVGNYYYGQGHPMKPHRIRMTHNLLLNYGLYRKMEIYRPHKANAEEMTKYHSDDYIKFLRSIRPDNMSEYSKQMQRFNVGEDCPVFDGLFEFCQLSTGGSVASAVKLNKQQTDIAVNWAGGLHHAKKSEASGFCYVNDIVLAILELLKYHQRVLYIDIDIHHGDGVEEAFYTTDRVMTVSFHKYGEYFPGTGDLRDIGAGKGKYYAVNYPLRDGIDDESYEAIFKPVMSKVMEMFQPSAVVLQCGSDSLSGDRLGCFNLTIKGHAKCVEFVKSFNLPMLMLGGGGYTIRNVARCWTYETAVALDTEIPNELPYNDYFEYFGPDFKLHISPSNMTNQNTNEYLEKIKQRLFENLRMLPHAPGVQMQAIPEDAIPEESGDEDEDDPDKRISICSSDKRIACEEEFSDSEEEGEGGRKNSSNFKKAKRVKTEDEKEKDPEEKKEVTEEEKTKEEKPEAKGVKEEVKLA

Compound | Activity (DU-145 [1]) | Activity (DU-145 [2]) | IC50 (DU-145 [3]) | IC50 (Histone deacetylase 1) | IC50 [4] | Drug uptake [8] | Drug uptake [9] | Activity [10] | Activity [11] | IC50 (in vitro) | also measured
O=C(CCCCCCC(=O)Nc1ccccc1)NO | Active | Active |  |  |  |  |  |  |  |  | 
N#CC(C#N)=C1C=C(/C=C/c2ccc(O)c(NC(=O)CCCCCCC(=O)NO)c2)Oc2ccccc21 | Active | Active | 960 nM | Not Active | 52 nM | Active | Active | 90.8% | 76.7% | 6130 nM | Activity [5]: Active; Activity [6]: inactive; Activity [7]: inactive; Drug uptake [12]: Active; Drug uptake [13]: Active; Drug uptake [14]: Active; Drug uptake [15]: Active; Drug uptake [16]: Not Active; Drug uptake [17]: Not Active; Drug uptake [18]: Not Active; Drug uptake [19]: Not Active; Activity (DU-145 [20]): Active; Activity [21]: Non-Toxic; Activity [22]: Non-Toxic
N#CC(C#N)=C1C=C(/C=C/c2ccc(O)cc2)Oc2ccc(O)cc21 |  |  | 270 nM |  |  |  |  |  |  | 1450 nM | 
N#CC(C#N)=C1C=C(/C=C/c2ccc(O)c(NC(=O)CCCCCCC(=O)NO)c2)Oc2ccc(O)cc21 |  |  | 15300 nM | Not Active | 2360 nM | Active | Active | 96.3% | 97.6% | > 100000 nM | 
